Experimental data as given in the supplement of paper PMC10307832.

Legend:
Test in all cases: relative viability (nuclei count vs DMSO), 5 days (fraction); higher = more cells survive
EKVX = test system: EKVX
Method in brief: (§1)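 Relative viability equals treated-well nuclei counts divided by vehicle-well nuclei counts. Counts came from 4× images of lung cancer cell lines grown in 1536-well plates for 5 days after pin-tool dosing on the day after seeding. Dosing used one drug alone or a fixed anchor-drug dose plus five library-drug doses (not always all listed) in √10 steps, and values are medians of duplicate plates.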

COR-L 105 = test system: COR-L 105
Method in brief: as §1

NCI-H1437 = test system: NCI-H1437
Method in brief: as §1

NCI-H2170 = test system: NCI-H2170
Method in brief: as §1

SW 900 = test system: SW 900
Method in brief: as §1

201T = test system: 201T
Method in brief: as §1

NCI-H460 = test system: NCI-H460
Method in brief: as §1

HCC-366 = test system: HCC-366
Method in brief: as §1

NCI-H441 = test system: NCI-H441
Method in brief: as §1

NCI-H727 = test system: NCI-H727
Method in brief: as §1

LK-2 = test system: LK-2
Method in brief: as §1

HARA = test system: HARA
Method in brief: as §1

NCI-H3122 = test system: NCI-H3122
Method in brief: as §1

PC-14 = test system: PC-14
Method in brief: as §1

NCI-H1666 = test system: NCI-H1666
Method in brief: as §1

NCI-H1650 = test system: NCI-H1650
Method in brief: as §1

ABC-1 = test system: ABC-1
Method in brief: as §1

NCI-H661 = test system: NCI-H661
Method in brief: as §1

LOU-NH91 = test system: LOU-NH91
Method in brief: as §1

NCI-H2009 = test system: NCI-H2009
Method in brief: as §1

BEN = test system: BEN
Method in brief: as §1

Structure (SMILES): COc1cc2nccc(Oc3ccc(NC(=O)Nc4cc(C)on4)c(Cl)c3)c2cc1OC [Tivozanib] + Nc1ncn([C@H]2C[C@H](O)[C@@H](CO)O2)c(=O)n1 [Decitabine] (partner 2 µM)
- relative viability (EKVX; first compound 0.005 µM): 0.308
- relative viability (EKVX; first compound 0.01581 µM): 0.353
- relative viability (EKVX; first compound 0.05 µM): 0.386
- relative viability (EKVX; first compound 0.1581 µM): 0.363
- relative viability (EKVX; first compound 0.5 µM): 0.313
- relative viability (COR-L 105; first compound 0.005 µM): 0.677
- relative viability (COR-L 105; first compound 0.01581 µM): 0.638
- relative viability (COR-L 105; first compound 0.05 µM): 0.731
- relative viability (COR-L 105; first compound 0.1581 µM): 0.627
- relative viability (COR-L 105; first compound 0.5 µM): 0.628
- relative viability (NCI-H1437; first compound 0.005 µM): 0.629
- relative viability (NCI-H1437; first compound 0.01581 µM): 0.582
- relative viability (NCI-H1437; first compound 0.05 µM): 0.594
- relative viability (NCI-H1437; first compound 0.1581 µM): 0.653
- relative viability (NCI-H1437; first compound 0.5 µM): 0.564
- relative viability (NCI-H2170; first compound 0.005 µM): 0.463
- relative viability (NCI-H2170; first compound 0.01581 µM): 0.495
- relative viability (NCI-H2170; first compound 0.05 µM): 0.489
- relative viability (NCI-H2170; first compound 0.5 µM): 0.458
- relative viability (SW 900; first compound 0.005 µM): 0.454
- relative viability (SW 900; first compound 0.01581 µM): 0.411
- relative viability (SW 900; first compound 0.05 µM): 0.454
- relative viability (SW 900; first compound 0.5 µM): 0.389
- relative viability (201T; first compound 0.005 µM): 0.85
- relative viability (201T; first compound 0.01581 µM): 0.855
- relative viability (201T; first compound 0.05 µM): 0.87
- relative viability (201T; first compound 0.1581 µM): 0.854
- relative viability (201T; first compound 0.5 µM): 0.896
- relative viability (NCI-H460; first compound 0.005 µM): 0.449
- relative viability (NCI-H460; first compound 0.01581 µM): 0.468
- relative viability (NCI-H460; first compound 0.05 µM): 0.48
- relative viability (NCI-H460; first compound 0.1581 µM): 0.62
- relative viability (NCI-H460; first compound 0.5 µM): 0.482
- relative viability (HCC-366; first compound 0.005 µM): 0.334
- relative viability (HCC-366; first compound 0.01581 µM): 0.306
- relative viability (HCC-366; first compound 0.05 µM): 0.346
- relative viability (HCC-366; first compound 0.1581 µM): 0.349
- relative viability (HCC-366; first compound 0.5 µM): 0.378
- relative viability (NCI-H441; first compound 0.005 µM): 0.262
- relative viability (NCI-H441; first compound 0.01581 µM): 0.25
- relative viability (NCI-H441; first compound 0.05 µM): 0.218
- relative viability (NCI-H441; first compound 0.1581 µM): 0.281
- relative viability (NCI-H441; first compound 0.5 µM): 0.224
- relative viability (NCI-H727; first compound 0.005 µM): 0.836
- relative viability (NCI-H727; first compound 0.01581 µM): 0.929
- relative viability (NCI-H727; first compound 0.05 µM): 0.85
- relative viability (NCI-H727; first compound 0.1581 µM): 0.59
- relative viability (NCI-H727; first compound 0.5 µM): 0.905
- relative viability (LK-2; first compound 0.005 µM): 0.275
- relative viability (LK-2; first compound 0.01581 µM): 0.322
- relative viability (LK-2; first compound 0.05 µM): 0.334
- relative viability (LK-2; first compound 0.1581 µM): 0.204
- relative viability (LK-2; first compound 0.5 µM): 0.206
- relative viability (HARA; first compound 0.005 µM): 0.469
- relative viability (HARA; first compound 0.01581 µM): 0.571
- relative viability (HARA; first compound 0.05 µM): 0.59
- relative viability (HARA; first compound 0.1581 µM): 0.652
- relative viability (HARA; first compound 0.5 µM): 0.793
- relative viability (NCI-H3122; first compound 0.005 µM): 0.462
- relative viability (NCI-H3122; first compound 0.01581 µM): 0.427
- relative viability (NCI-H3122; first compound 0.05 µM): 0.429
- relative viability (NCI-H3122; first compound 0.1581 µM): 0.401
- relative viability (NCI-H3122; first compound 0.5 µM): 0.563
- relative viability (PC-14; first compound 0.005 µM): 0.195
- relative viability (PC-14; first compound 0.01581 µM): 0.214
- relative viability (PC-14; first compound 0.05 µM): 0.216
- relative viability (PC-14; first compound 0.1581 µM): 0.252
- relative viability (PC-14; first compound 0.5 µM): 0.153
- relative viability (NCI-H1666; first compound 0.005 µM): 0.664
- relative viability (NCI-H1666; first compound 0.01581 µM): 0.683
- relative viability (NCI-H1666; first compound 0.05 µM): 0.784
- relative viability (NCI-H1666; first compound 0.1581 µM): 0.665
- relative viability (NCI-H1666; first compound 0.5 µM): 0.643
- relative viability (NCI-H1650; first compound 0.005 µM): 0.412
- relative viability (NCI-H1650; first compound 0.01581 µM): 0.493
- relative viability (NCI-H1650; first compound 0.05 µM): 0.507
- relative viability (NCI-H1650; first compound 0.1581 µM): 0.508
- relative viability (NCI-H1650; first compound 0.5 µM): 0.411
- relative viability (ABC-1; first compound 0.005 µM): 0.986
- relative viability (ABC-1; first compound 0.01581 µM): 1.01
- relative viability (ABC-1; first compound 0.05 µM): 1.15
- relative viability (ABC-1; first compound 0.1581 µM): 0.868
- relative viability (ABC-1; first compound 0.5 µM): 0.694
- relative viability (NCI-H661; first compound 0.005 µM): 0.527
- relative viability (NCI-H661; first compound 0.01581 µM): 0.557
- relative viability (NCI-H661; first compound 0.05 µM): 0.592
- relative viability (NCI-H661; first compound 0.1581 µM): 0.514
- relative viability (NCI-H661; first compound 0.5 µM): 0.552
- relative viability (LOU-NH91; first compound 0.005 µM): 0.772
- relative viability (LOU-NH91; first compound 0.01581 µM): 0.8
- relative viability (LOU-NH91; first compound 0.05 µM): 0.808
- relative viability (LOU-NH91; first compound 0.1581 µM): 0.752
- relative viability (LOU-NH91; first compound 0.5 µM): 0.796
- relative viability (NCI-H2009; first compound 0.005 µM): 0.388
- relative viability (NCI-H2009; first compound 0.01581 µM): 0.329
- relative viability (NCI-H2009; first compound 0.05 µM): 0.382
- relative viability (NCI-H2009; first compound 0.1581 µM): 0.369
- relative viability (NCI-H2009; first compound 0.5 µM): 0.368
- relative viability (BEN; first compound 0.005 µM): 0.725
- relative viability (BEN; first compound 0.01581 µM): 0.703
- relative viability (BEN; first compound 0.05 µM): 0.761
- relative viability (BEN; first compound 0.1581 µM): 0.471
- relative viability (BEN; first compound 0.5 µM): 0.563
